For experiment [1], the system named is Botrytis cinerea. The experiment is described as follows: Antifungal activity against Botryotinia fuckeliana assessed as radial mycelia growth inhibition at 25 degC at 1 to 100 umol relative to control (crop protection Lilium longiflorum Thunb.). The class given is functional, organism-based.
The test system of experiment [2] is Botrytis cinerea. The experiment is described as follows: Antifungal activity against Botryotinia fuckeliana assessed as radial mycelia growth inhibition at 25 degC at 100 umol relative to control (crop protection Lilium longiflorum Thunb.). The format is functional.

Active and inactive are the calls of the source. The rule behind the calls is not given here.

As to `C[C@@H]1CC[C@@]2(NC1)O[C@H]1C[C@H]3[C@@H]4CC=C5C[C@@H](O[C@@H]6O[C@H](CO)[C@@H](O[C@@H]7O[C@H](CO)[C@@H](O)[C@H](O)[C@H]7O)[C@H](O)[C@H]6O[C@@H]6O[C@@H](C)[C@H](O)[C@@H](O)[C@H]6O)CC[C@]5(C)[C@H]4CC[C@]3(C)[C@H]1[C@@H]2C`, in the experiment with Botrytis cinerea [1], the “growth inhibition (GI)” value is “Active”. On to `C[C@H](CC[C@@]1(O)O[C@H]2C[C@H]3[C@@H]4CC=C5C[C@@H](O[C@@H]6O[C@H](CO)[C@@H](O)[C@H](O[C@@H]7OC[C@H](O)[C@H](O)[C@H]7O)[C@H]6O[C@@H]6O[C@@H](C)[C@H](O)[C@@H](O)[C@H]6O)CC[C@]5(C)[C@H]4CC[C@]3(C)[C@H]2[C@@H]1C)CO[C@@H]1O[C@H](CO)[C@@H](O)[C@H](O)[C@H]1O`, for which the “growth inhibition (GI)” value with Botrytis cinerea [2] is recorded as 25%.

Turning to `CC(=O)OC[C@H]1O[C@@H](O[C@H]2[C@H](O)[C@@H](O[C@@H]3O[C@@H](C)[C@H](O)[C@@H](O)[C@H]3O)[C@H](O[C@H]3CC[C@@]4(C)C(=CC[C@H]5[C@@H]6C[C@@H]7O[C@]8(CC[C@@H](C)CN8)[C@@H](C)[C@@H]7[C@@]6(C)CC[C@@H]54)C3)O[C@@H]2CO)[C@H](O)[C@@H](O)[C@@H]1O`, in the experiment with Botrytis cinerea [2], the “growth inhibition (GI)” value is listed as 49%. Regarding `C[C@H](CC[C@@]1(O)O[C@H]2C[C@H]3[C@@H]4CC=C5C[C@@H](O[C@@H]6O[C@H](CO)[C@@H](O[C@@H]7O[C@H](CO)[C@@H](O)[C@H](O)[C@H]7O)[C@H](O)[C@H]6O[C@@H]6O[C@@H](C)[C@H](O)[C@@H](O)[C@H]6O)CC[C@]5(C)[C@H]4CC[C@]3(C)[C@H]2[C@@H]1C)CO[C@@H]1O[C@H](CO)[C@@H](O)[C@H](O)[C@H]1O`, the “growth inhibition (GI)” value with Botrytis cinerea [2] was determined as 25%.

`C[C@H](CC[C@@]1(O)O[C@H]2C[C@H]3[C@@H]4CC=C5C[C@@H](O[C@@H]6O[C@H](CO)[C@@H](O)[C@H](O[C@@H]7OC[C@H](O)[C@@H](O)[C@@H]7O)[C@H]6O[C@@H]6O[C@@H](C)[C@H](O)[C@@H](O)[C@H]6O)CC[C@]5(C)[C@H]4CC[C@]3(C)[C@H]2[C@@H]1C)CO[C@@H]1O[C@H](CO)[C@@H](O)[C@H](O)[C@H]1O`: the “growth inhibition (GI)” value in the experiment with Botrytis cinerea [2] was 25%.
